Reference: US5114464A, “4-quinoxalinyloxyphenoxyalkylinitrile herbicides” (Uniroyal Chemical Company, Inc., priority 1990, dated 1992)

Legend:
velvet leaf [1] = assay: Preemergence control of velvet leaf (Table I); format: in vivo, Abutilon theoohrasti Medic.; settings: 11.2 kg/ha, two weeks after treatment
Method: (§1) To illustrate the effectiveness of the Compounds 1 and 2 of this invention as preemergence herbicides, 300 mg of each compound were dissolved in 10 ml acetone to which 30 mg of an emulsifying agent, ethoxylated sorbitan monolaurate, were added. The solution was diluted to 100 ml with distilled water. Ten milliliters of the 3000 ppm solution were diluted to 250 ppm with distilled water. The chemical was applied at the rate of 10 lb/A (11.2 kg/ha) by drenching 46 ml of the 250 ppm solution on the surface of soil in 41/2inch (11.25 cm) plastic pots wherein seeds of the following weeds had been planted: velvet leaf (Abutilon theoohrasti Medic.) (VL), prickly sida (sida soinosa L.) (PS), tall morningglory (Ioomea purourea L. Roth) (TM), switchgrass (Panicum viroatum L.) (SG), barnyard grass (Echinolchloa crus-oalli (L.) Beauv.) (BG), and green foxtail (Setaria viridis) (L.) Beauv.) (GF). The percent control of the weeds compared to untreated checks was determined two weeks after treatment.

prickly sida [2] = assay: Preemergence control of prickly sida (Table I); format: in vivo, sida soinosa L.; settings: 11.2 kg/ha, two weeks after treatment
Method: as §1

tall morningglory [3] = assay: Preemergence control of tall morningglory (Table I); format: in vivo, Ioomea purourea L. Roth; settings: 11.2 kg/ha, two weeks after treatment
Method: as §1

barnyard grass [4] = assay: Preemergence control of barnyard grass (Table I); format: in vivo, Echinolchloa crus-oalli (L.) Beauv.; settings: 11.2 kg/ha, two weeks after treatment
Method: as §1

switchgrass [5] = assay: Preemergence control of switchgrass (Table I); format: in vivo, Panicum viroatum L.; settings: 11.2 kg/ha, two weeks after treatment
Method: as §1

green foxtail [6] = assay: Preemergence control of green foxtail (Table I); format: in vivo, Setaria viridis (L.) Beauv.; settings: 11.2 kg/ha, two weeks after treatment
Method: as §1

velvet leaf [7] = assay: Postemergence control of velvet leaf (Table II); format: in vivo, Abutilon theoohrasti Medic.; settings: 3000 ppm, two weeks after treatment
Method: as §1
(§2) To test the effectiveness of Compounds 1 and 2 of this invention as postemergence herbicides, a 3000 ppm solution of each compound (produced in accordance with the process described under Example 3) was atomized employing a DEVILBISS [trademark] sprayer, wetting the foliage to the drip point. […] The percent weed control was evaluated two weeks after treatment.

prickly sida [8] = assay: Postemergence control of prickly sida (Table II); format: in vivo, sida soinosa L.; settings: 3000 ppm, two weeks after treatment
Method: as §1, §2

tall morningglory [9] = assay: Postemergence control of tall morningglory (Table II); format: in vivo, Ioomea purourea L. Roth; settings: 3000 ppm, two weeks after treatment
Method: as §1, §2

barnyard grass [10] = assay: Postemergence control of barnyard grass (Table II); format: in vivo, Echinolchloa crus-oalli (L.) Beauv.; settings: 3000 ppm, two weeks after treatment
Method: as §1, §2

switchgrass [11] = assay: Postemergence control of switchgrass (Table II); format: in vivo, Panicum viroatum L.; settings: 3000 ppm, two weeks after treatment
Method: as §1, §2

green foxtail [12] = assay: Postemergence control of green foxtail (Table II); format: in vivo, Setaria viridis (L.) Beauv.; settings: 3000 ppm, two weeks after treatment
Method: as §1, §2

velvet leaf [13] = assay: Postemergence selectivity, greenhouse: velvet leaf (Table V); format: in vivo, Abutilon theoohrasti Medic.; settings: 2 weeks
Method: (§3) To illustrate the effectiveness of Compound 1 of this invention as a corn-safe selective postemergence herbicide, the 3000 ppm solution prepared as described in Example 3 was diluted with distilled water to 250 ppm and applied to foliage as described in Example 3. The commercial product Hoelon 3EC® (Hoechst) was included as a standard. The foliage included weedy grasses described in Example 3 in addition to the crops corn, soybeans and cotton. The foliage was planted in a Connecticut greenhouse on May 16, and was treated on May 26. The percent weed control and crop injury was determined on Jun. 12.
(§4) To illustrate the effectiveness of Compound 2 of this invention as a corn-safe selective postemergence herbicide, various concentrations of the compound were prepared and applied as in Example 5 to the following weeds and crops: velvet leaf (Abutilon theoohrasti Medic.) (VL), prickly sida (Sida spinosa L.) (PS), wild morningglory (Ipomopa sp.) (WM), barnyard grass (Echinolchloa crus-galli (L.) Beauv.) (BG), green foxtail (Setaria viridis) (L.) Beauv.) (GF), wild oat (Avena fatua L.) (WO), corn (CR), soybean (SO), cotton (CT) and rice (RC). The weeds and crops were planted in mid-September in a Connecticut greenhouse and were treated eight days later. The percent weed control and crop injury was determined 2 weeks after treatment.

prickly sida [14] = assay: Postemergence selectivity, greenhouse: prickly sida (Table V); format: in vivo, Sida spinosa L.; settings: 2 weeks
Method: as §3, §4

wild morningglory = assay: Postemergence selectivity, greenhouse: wild morningglory (Table V); format: in vivo, Ipomopa sp.; settings: 2 weeks
Method: as §3, §4

wild oat = assay: Postemergence selectivity, greenhouse: wild oat (Table V); format: in vivo, Avena fatua L.; settings: 2 weeks
Method: as §3, §4

green foxtail [15] = assay: Postemergence selectivity, greenhouse: green foxtail (Table V); format: in vivo, Setaria viridis (L.) Beauv.; settings: 2 weeks
Method: as §3, §4

barnyard grass [16] = assay: Postemergence selectivity, greenhouse: barnyard grass (Table V); format: in vivo, Echinolchloa crus-galli (L.) Beauv.; settings: 2 weeks
Method: as §3, §4

corn = assay: Postemergence selectivity, greenhouse: corn injury (Table V); format: in vivo; settings: for Percent crop injury CR: postemergence, 2 weeks
Method: as §3, §4

soybean = assay: Postemergence selectivity, greenhouse: soybean injury (Table V); format: in vivo; settings: 2 weeks
Method: as §3, §4

cotton = assay: Postemergence selectivity, greenhouse: cotton injury (Table V); format: in vivo; settings: 2 weeks
Method: as §3, §4

rice = assay: Postemergence selectivity, greenhouse: rice injury (Table V); format: in vivo; settings: 2 weeks
Method: as §3, §4

weeds [17] = assay: Preemergence control, summary statement; format: in vivo; settings: 11.2 kg/ha
Method: as §1

weeds [18] = assay: Postemergence control, summary statement; format: in vivo; settings: 3000 ppm
Method: as §1, §2

grass weeds = assay: Postemergence selectivity greenhouse (Example 7), summary for grass weeds; format: in vivo; settings: 1000 to 3000 ppm
Method: as §3, §4

CC(C#N)Oc1ccc(Oc2cnc3cc(Cl)ccc3n2)cc1 (stereo not shown) [Compound 2, 2-[4-(6-chloro-2-quinoxalinyloxy)phenoxy]propionitrile]
% Control VL (velvet leaf [1]): 0%
% Control PS (prickly sida [2]): 0%
% Control TM (tall morningglory [3]): 0%
% Control BG (barnyard grass [4]): 50%
% Control SG (switchgrass [5]): 100%
% Control GF (green foxtail [6]): 25%
% Control VL (velvet leaf [7]): 95%
% Control PS (prickly sida [8]): 75%
% Control TM (tall morningglory [9]): 55%
% Control BG (barnyard grass [10]): 65%
% Control SG (switchgrass [11]): 35%
% Control GF (green foxtail [12]): 95%
Percent Weed Control VL (velvet leaf [13]; 1000 ppm): 90%
Percent Weed Control VL (velvet leaf [13]; 2000 ppm): 90%
Percent Weed Control VL (velvet leaf [13]; 3000 ppm): 90%
Percent Weed Control PS (prickly sida [14]; 1000 ppm): 0%
Percent Weed Control PS (prickly sida [14]; 2000 ppm): 0%
Percent Weed Control PS (prickly sida [14]; 3000 ppm): 0%
Percent Weed Control WM (wild morningglory; 1000 ppm): 10%
Percent Weed Control WM (wild morningglory; 2000 ppm): 10%
Percent Weed Control WM (wild morningglory; 3000 ppm): 20%
Percent Weed Control WO (wild oat; 1000 ppm): 0%
Percent Weed Control WO (wild oat; 2000 ppm): 0%
Percent Weed Control WO (wild oat; 3000 ppm): 10%
Percent Weed Control GF (green foxtail [15]; 1000 ppm): 100%
Percent Weed Control GF (green foxtail [15]; 2000 ppm): 100%
Percent Weed Control GF (green foxtail [15]; 3000 ppm): 100%
Percent Weed Control BG (barnyard grass [16]; 1000 ppm): 85%
Percent Weed Control BG (barnyard grass [16]; 2000 ppm): 85%
Percent Weed Control BG (barnyard grass [16]; 3000 ppm): 95%
Percent crop injury CR (corn; 1000 ppm): 0%
corn safety (corn; 1000 to 3000 ppm): substantially innocuous to corn
Percent crop injury CR (corn; 2000 ppm): 0%
Percent crop injury CR (corn; 3000 ppm): 0%
Percent crop injury SO (soybean; 1000 ppm): 20%
Percent crop injury SO (soybean; 2000 ppm): 20%
Percent crop injury SO (soybean; 3000 ppm): 20%
Percent crop injury CT (cotton; 1000 ppm): 20%
Percent crop injury CT (cotton; 2000 ppm): 20%
Percent crop injury CT (cotton; 3000 ppm): 20%
Percent crop injury RC (rice; 1000 ppm): 50%
Percent crop injury RC (rice; 2000 ppm): 50%
Percent crop injury RC (rice; 3000 ppm): 50%
herbicidal efficacy (weeds [17]): good to excellent herbicidal efficacy
postemergent herbicidal control (weeds [18]): desirable postemergent herbicidal control
control of several grass weeds (grass weeds): good control of several grass weeds
